Like-named read-outs stand apart in the source and are kept apart here.
Key:
[1] = system: Pseudomonas aeruginosa efflux+ (MB9798), IMP-1; assay type: cell-based; parameters: Concentration of metallo-β-lactamase inhibitor which restores susceptibility of efflux + (MB9798) strain to imipenem: unit not given here; conditions: C, D serine β-lactamase inhibitor closely related to relebactam; for P. aeruginosa expressing IMP-1, efflux + (MB9798) MITC95: concentration restoring susceptibility to imipenem at 2 μg/mL in the presence of a class A; for Concentration of metallo-β-lactamase inhibitor which restores susceptibility of efflux + (MB9798) strain to imipenem: imipenem at 2 μg/mL, in the presence of a class A
How it was run: (§1)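 P. aeruginosa PAO1-derived IMP-1 strains, efflux+ MB9798 and efflux− MB9799, tested by standard microbroth MIC with imipenem and/or ceftazidime fixed, usually at CLSI breakpoint, plus fixed class A/C β-lactamase inhibitor against AmpC. Inhibitor titrated; concentration restoring susceptibility recorded; MB9798/MB9799 fold difference indicates efflux.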

[2] = system: Pseudomonas aeruginosa efflux− (MB9799), IMP-1; assay type: cell-based; conditions: C, D serine β-lactamase inhibitor closely related to relebactam; for P. aeruginosa expressing IMP-1, efflux − (MB9799) MITC95: concentration restoring susceptibility to imipenem at 2 μg/mL in the presence of a class A; for Concentration of metallo-β-lactamase inhibitor which restores susceptibility of efflux − (MB9799) strain to imipenem: imipenem at 2 μg/mL, in the presence of a class A
How it was run: as §1

VIM-1 = VIM-1 (Pseudomonas aeruginosa (strain ATCC 15692 / DSM 22644 / CIP 104116 / JCM 14847 / LMG 12228 / 1C / PRS 101 / PAO1), UniProt A0A0F7KYQ8); assay: biochemical; conditions: CCF2-FA substrate, 30 pM enzyme, 2 hours at 25° C.
How it was run: (§2)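 Semi-log dose-response curves, fitted with a 4-parameter model, gave IC50s. The underlying signal was CCF2-FA fluorescence following 2 hours at 25° C with enzyme, substrate and inhibitor combined.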

IMP-1 = IMP-1 (Serratia marcescens, UniProt P52699); assay: biochemical; assay type: biochemical; conditions: fluorescence assay, CCF2-FA substrate, 2 pM enzyme, 2 hours at 25° C.; read-out: IMP-1 IC50
IMP-1, sequence (P52699 whole entry, looked up, species assumed): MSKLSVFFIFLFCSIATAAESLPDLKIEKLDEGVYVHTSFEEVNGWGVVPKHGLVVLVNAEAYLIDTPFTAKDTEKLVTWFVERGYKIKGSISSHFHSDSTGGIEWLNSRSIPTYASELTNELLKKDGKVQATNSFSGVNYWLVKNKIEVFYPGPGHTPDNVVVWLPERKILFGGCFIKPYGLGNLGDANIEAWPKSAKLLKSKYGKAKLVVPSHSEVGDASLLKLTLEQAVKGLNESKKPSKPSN
How it was run: as §2

NDM-1 = NDM-1 (Klebsiella pneumoniae, UniProt C7C422); assay: biochemical; assay type: biochemical; conditions: fluorescence assay, CCF2-FA substrate, 1 pM enzyme, 2 hours at 25° C.; read-out: NDM-1 IC50
NDM-1, sequence (C7C422 whole entry, looked up, species assumed): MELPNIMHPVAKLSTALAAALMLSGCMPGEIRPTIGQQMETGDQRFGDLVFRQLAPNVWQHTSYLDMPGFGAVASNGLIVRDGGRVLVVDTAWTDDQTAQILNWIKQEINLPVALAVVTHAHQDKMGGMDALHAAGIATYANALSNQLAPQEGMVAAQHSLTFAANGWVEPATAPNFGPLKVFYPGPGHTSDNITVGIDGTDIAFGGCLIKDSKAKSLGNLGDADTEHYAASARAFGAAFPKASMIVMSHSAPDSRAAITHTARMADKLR
How it was run: as §2

[3] = system: Pseudomonas aeruginosa MB9798 vs MB9799
How it was run: as §1

[4] = system: Klebsiella pneumoniae expressing VIM-1 (IHMA599644); assay type: cell-based; conditions: for Klebsiella pneumoniae expressing VIM-1 (IHMA599644) MITC95: with imipenem 1 μg/ml, 95% inhibition of bacterial growth; for Klebsiella pneumoniae MITC95: VIM-1 strain IHMA599644, with imipenem 1 μg/ml, 95% inhibition of growth
How it was run: (§3)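 Clinical isolates (E. coli NDM-1, S. marcescens IMP-1, K. pneumoniae VIM-1) were diluted 1:100 from saline suspension into 1.1×CAMHB and exposed to test compound with imipenem at 1 μg/ml. Plates were incubated at 35° C for 22 hours to 24 hours, and growth was read by absorbance.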

[5] = system: Serratia marcescens expressing IMP-1 (CL5741); assay type: cell-based; conditions: for Serratia marcescens expressing IMP-1 (CL5741) MITC95: with imipenem 1 μg/ml, 95% inhibition of bacterial growth; for Serratia marcescens MITC95: IMP-1 strain CL5741, with imipenem 1 μg/ml, 95% inhibition of growth
How it was run: as §3

[6] = system: Escherichia coli expressing NDM-1 (CLB30005, CLB30016); assay type: cell-based; conditions: with imipenem 1 μg/ml; for Escherichia coli expressing NDM-1 (CLB30016) MITC95: 95% inhibition of bacterial growth; for Escherichia coli MITC95: NDM-1 strain, 95% inhibition of growth
How it was run: as §3

[7] = fluorescence assay, read-out: VIM-1 IC50
[8] = ratio MITC95 PA_9798/MITC95 PA_9799
[9] = fold difference between efflux+ (MB9798) and efflux− (MB9799) strains, imipenem at 2 μg/mL

Row | Structure (SMILES) | P. aeruginosa expressing IMP-1, efflux + (MB9798) MITC95 [1] [µM] | P. aeruginosa expressing IMP-1, efflux − (MB9799) MITC95 [2] [µM] | IC50 (VIM-1; [7]) [nM] | IC50 (IMP-1) [nM] | IC50 (NDM-1) [nM] | Efflux ratio [3, 8] | Klebsiella pneumoniae expressing VIM-1 (IHMA599644) MITC95 [4] [µM] | Serratia marcescens expressing IMP-1 (CL5741) MITC95 [5] [µM] | Escherichia coli expressing NDM-1 (CLB30016) MITC95 [6] [µM] | IC50 (VIM-1; VIM-1 IC50, fluorescence assay) [nM] | Klebsiella pneumoniae MITC95 [4] [µM] | Serratia marcescens MITC95 [5] [µM] | Escherichia coli MITC95 [6] [µM] | Concentration of metallo-β-lactamase inhibitor which restores susceptibility of efflux + (MB9798) strain to imipenem [1] | Concentration of metallo-β-lactamase inhibitor which restores susceptibility of efflux − (MB9799) strain to imipenem [2] | Efflux ratio [3, 9]
1 | Nc1nc2cccc(-c3ccc(S(N)(=O)=O)c(S(N)(=O)=O)c3-c3nn[nH]n3)c2[nH]1 [Example 1, 4-(2-amino-3H-benzo[d]imidazol-4-yl)-3-(2H-tetrazol-5-yl)benzene-1,2-disulfonamide] | 0.5573 | 0.8542 | 0.264 | 0.581 | 0.0853 | 0.65 | 1.448 | 0.8542 | 0.5156 | – | – | – | – | – | – | –
2 | Nc1nc2c(-c3ccc(S(=O)(=O)N[C@H]4CCCNC4)c(S(N)(=O)=O)c3-c3nnn[nH]3)cccc2s1 [Example 67, 4-(2-amino-1,3-benzothiazol-4-yl)-N1-[(3S)-piperidin-3-yl]-3-(1H-tetrazol-5-yl)benzene-1,2-disulfonamide] | 1.563 | 1.563 | – | 0.488 | 0.0407 | 1.00 | 3.125 | 1.563 | 1.563 | 0.271 | – | – | – | – | – | –
3 | NC(=O)c1nc2c(-c3ccc(S(=O)(=O)N[C@H]4CCNC4)c(S(N)(=O)=O)c3-c3nn[nH]n3)cccc2[nH]1 [Example 292, (S)-4-(4-(N-(pyrrolidin-3-yl)sulfamoyl)-3-sulfamoyl-2-(2H-tetrazol-5-yl)phenyl)-1H-benzo[d]imidazole-2-carboxamide] | 0.7813 | 1.563 | 0.146 | 0.672 | 0.0453 | 0.50 | – | – | – | – | 3.125 | 3.125 | 1.563 | – | – | –
4 | NCC(CN)NS(=O)(=O)c1ccc(-c2ccnc(N)c2)c(-c2nn[nH]n2)c1S(N)(=O)=O [Example 405] | – | – | 5.94 | 17.9 | 7.69 | – | – | – | – | – | 25 | 6.25 | 3.125 | 25 | 12.5 | 2.00
5 | NCC(F)(F)c1nc2c(-c3ccc(S(=O)(=O)N[C@H]4CCNC4)c(S(N)(=O)=O)c3-c3nn[nH]n3)cccc2[nH]1 [Example 446, (S)-4-(2-(2-amino-1,1-difluoroethyl)-1H-benzo[d]imidazol-4-yl)-N1-(pyrrolidin-3-yl)-3-(2H-tetrazol-5-yl)benzene-1,2-disulfonamide] | – | – | 0.153 | 0.446 | 0.0569 | – | – | – | – | – | 3.125 | 3.125 | 1.563 | 3.125 | 1.563 | 2.00
6 | NC[C@H](O)CNS(=O)(=O)c1ccc(-c2ccncc2N)c(-c2nn[nH]n2)c1S(N)(=O)=O [Example 222, (S)—N1-(3-amino-2-hydroxypropyl)-4-(3-aminopyridin-4-yl)-3-(2H-tetrazol-5-yl)benzene-1,2-disulfonamide] | 1.563 | 1.563 | 0.445 | 1.19 | 0.311 | 1.00 | 3.125 | 1.563 | 0.3906 | – | – | – | – | – | – | –
7 | NCc1nc2cc(-c3ccc(S(=O)(=O)NC[C@@H](O)CN)c(S(N)(=O)=O)c3-c3nn[nH]n3)ccc2s1 [Example 473, (S)-N1-(3-amino-2-hydroxypropyl)-4-(2-(aminomethyl)benzo[d]thiazol-5-yl)-3-(2H-tetrazol-5-yl)benzene-1,2-disulfonamide] | – | – | 0.109 | 0.329 | 0.136 | – | – | – | – | – | 1.563 | 1.563 | 0.7813 | 0.7813 | 0.7813 | 1.00
8 | C[C@H](N)CNS(=O)(=O)c1ccc(-c2cccc3[nH]c(N)nc23)c(-c2nn[nH]n2)c1S(N)(=O)=O [Example 184, 4-(2-amino-1H-benzo[d]imidazol-4-yl)-N1-((S)-2-aminopropyl)-3-(2H-tetrazol-5-yl)benzene-1,2-disulfonamide] | 0.7813 | 0.7813 | 0.189 | 0.673 | 0.0347 | 1.00 | 0.7813 | 0.7813 | 0.3906 | – | – | – | – | – | – | –
9 | Nc1nc2c(-c3ccc(S(=O)(=O)NC[C@@]4(N)CCNC4)c(S(N)(=O)=O)c3-c3nn[nH]n3)cccc2s1 [Example 367, (R)-4-(2-aminobenzo[d]thiazol-4-yl)-N1-((3-aminopyrrolidin-3-yl)methyl)-3-(2H-tetrazol-5-yl)benzene-1,2-disulfonamide] | 0.7813 | 1.563 | – | 0.0766 | 0.0193 | 0.50 | – | – | – | 0.0975 | 3.125 | 1.563 | 1.563 | – | – | –
